Assay in all cases: Bacterial growth minimal inhibitory concentration (microdilution, CLSI M7-A7)
What all share (format): cell-based

The subject of one test is E. coli ATCC25922. As to conditions: Escherichia coli, ATCC25922; quinolone-sensitive strain; cation-adjusted Mueller-Hinton Broth. The method, then:
(§1) Minimal Inhibitory Concentrations (MICs; mg/L) were determined in cation-adjusted Mueller-Hinton Broth by a microdilution method following the description given in “Methods for Dilution Antimicrobial Susceptibility Tests for Bacteria that Grow Aerobically”, Approved standard, 7th ed., Clinical and Laboratory Standards Institute (CLSI) Document M7-A7, Wayne, Pa., USA (2006).
(§2) All Example compounds were tested against several Gram-positive and Gram-negative bacteria. […] K. pneumoniae A-651 and Acinetobacter baumannii T6474 are multiply-resistant strains (in particular quinolone-resistant), while E. coli ATCC25922 and P. aeruginosa ATCC27853 are quinolone-sensitive strains.

The test system of the next test is P. aeruginosa ATCC27853. As to conditions: Pseudomonas aeruginosa, ATCC27853; quinolone-sensitive strain; cation-adjusted Mueller-Hinton Broth. The method, then: as §1, §2
The subject of test [1] is Acinetobacter baumannii T6474. As to conditions: Acinetobacter baumannii, T6474; multiply-resistant strain (in particular quinolone-resistant); cation-adjusted Mueller-Hinton Broth. How it is done:
as §1, §2

The subject of another test is K. pneumoniae A-651. As to conditions: Klebsiella pneumoniae, A651; multiply-resistant strain (in particular quinolone-resistant); cation-adjusted Mueller-Hinton Broth. The method, then:
as §1, §2

Each structure is given as a SMILES string. In brackets after ≈: the same amount, converted by molar mass.

For the compound `C[C@@](CCn1ncc2cc(C#Cc3ccc([C@H]4C[C@@H]4CO)cc3)ccc21)(C(=O)NO)S(C)(=O)=O` [Example 19, (R)—N-hydroxy-4-(5-((4-((1S,2S)-2-(hydroxymethyl)cyclopropyl)phenyl)ethynyl)-1H-indazol-1-yl)-2-methyl-2-(methylsulfonyl)butanamide], the minimum inhibitory concentration (MIC) against E. coli ATCC25922 is 0.125 µg/mL (≈ 0.26 µM); in the test with P. aeruginosa ATCC27853, 1 µg/mL (≈ 2.08 µM); in test [1], ≤ 0.063 µg/mL; with K. pneumoniae A-651, 0.25 µg/mL (≈ 0.519 µM).
The corresponding values for `C[C@@](CCn1ccc2cc(C#Cc3ccc(CCO)cc3)ccc21)(C(=O)NO)S(C)(=O)=O` [Example 45, (R)—N-hydroxy-4-(5-((4-(2-hydroxyethyl)phenyl)ethynyl)-1H-indol-1-yl)-2-methyl-2-(methylsulfonyl)butanamide] are ≤ 0.063 µg/mL, 1 µg/mL (≈ 2.2 µM), 8 µg/mL (≈ 17.6 µM) and 0.25 µg/mL (≈ 0.55 µM).
The corresponding values for `CC(C)(O)c1ccc(C#Cc2ccc3c(cnn3CC[C@](C)(C(=O)NO)S(C)(=O)=O)c2)cc1` [Example 8, (R)—N-hydroxy-4-(5-((4-(2-hydroxypropan-2-yl)phenyl)ethynyl)-1H-indazol-1-yl)-2-methyl-2-(methylsulfonyl)butanamide] are 0.125 µg/mL (≈ 0.266 µM), 2 µg/mL (≈ 4.26 µM), 0.25 µg/mL (≈ 0.532 µM) and 0.25 µg/mL (≈ 0.532 µM).
The corresponding values for `COc1ccc(-c2ccc3c(ccn3CCC(C)(C(=O)NO)S(C)(=O)=O)c2F)c(F)c1` (racemic) [RE12, (RS)-4-(4-fluoro-5-(2-fluoro-4-methoxyphenyl)-1H-indol-1-yl)-N-hydroxy-2-methyl-2-(methylsulfonyl)butanamide] are 2 µg/mL (≈ 4.42 µM), 2 µg/mL (≈ 4.42 µM), 2 µg/mL (≈ 4.42 µM) and 4 µg/mL (≈ 8.84 µM).
As to `C[C@@](CCn1ncc2cc(C#Cc3ccc([C@@H](O)CO)cc3)ccc21)(C(=O)NO)S(C)(=O)=O` [Example 21, (R)-4-(5-((4-((R)-1,2-dihydroxyethyl)phenyl)ethynyl)-1H-indazol-1-yl)-N-hydroxy-2-methyl-2-(methylsulfonyl)butanamide], the MIC was determined as 1 µg/mL (≈ 2.12 µM) against E. coli ATCC25922, 1 µg/mL (≈ 2.12 µM) with P. aeruginosa ATCC27853, 0.5 µg/mL (≈ 1.06 µM) in test [1] and 1 µg/mL (≈ 2.12 µM) against K. pneumoniae A-651.
As for `C[C@@](CCn1ncc2cc(C#CC#CC3(O)CSC3)ccc21)(C(=O)NO)S(C)(=O)=O` [Example 13, (R)—N-hydroxy-4-(5-((3-hydroxythietan-3-yl)buta-1,3-diyn-1-yl)-1H-indazol-1-yl)-2-methyl-2-(methylsulfonyl)butanamide], the MIC against E. coli ATCC25922 was determined as 0.25 µg/mL (≈ 0.559 µM); against P. aeruginosa ATCC27853, 1 µg/mL (≈ 2.23 µM); in test [1] it was 8 µg/mL (≈ 17.9 µM); with K. pneumoniae A-651 it was 0.25 µg/mL (≈ 0.559 µM).
`C[C@@](CCn1ncc2c(F)c(C#Cc3ccc(CCO)cc3)ccc21)(C(=O)NO)S(C)(=O)=O` [Example 36, (R)-4-(4-fluoro-5-((4-(2-hydroxyethyl)phenyl)ethynyl)-1H-indazol-1-yl)-N-hydroxy-2-methyl-2-(methylsulfonyl)butanamide]: the MIC was ≤ 0.063 µg/mL against E. coli ATCC25922, 1 µg/mL (≈ 2.11 µM) in the test with P. aeruginosa ATCC27853, ≤ 0.063 µg/mL in test [1] and 0.125 µg/mL (≈ 0.264 µM) in the test with K. pneumoniae A-651.
On to `CC(CCn1ccc2cc(-c3ccc(-n4nccn4)cc3)ccc21)(C(=O)NO)S(C)(=O)=O.O=CO` (racemic) [RE8, (RS)-4-(5-(4-(2H-1,2,3-triazol-2-yl)phenyl)-1H-indol-1-yl)-N-hydroxy-2-methyl-2-(methylsulfonyl)butanamide formate], for which the MIC with E. coli ATCC25922 was 0.25 µg/mL; in the test on P. aeruginosa ATCC27853, 8 µg/mL; in test [1] it was 0.5 µg/mL; in the test with K. pneumoniae A-651, ≤ 0.063 µg/mL.
For `CSc1ccc(-c2ccc3c(ccn3CCC(C)(C(=O)NO)S(C)(=O)=O)c2)c(F)c1` (racemic) [RE10, (RS)-4-(5-(2-fluoro-4-(methylthio)phenyl)-1H-indol-1-yl)-N-hydroxy-2-methyl-2-(methylsulfonyl)butanamide], the minimal inhibitory concentration (MIC) came out at 2 µg/mL (≈ 4.44 µM) with E. coli ATCC25922, 8 µg/mL (≈ 17.8 µM) in the test with P. aeruginosa ATCC27853, 4 µg/mL (≈ 8.88 µM) in test [1] and 0.5 µg/mL (≈ 1.11 µM) in the test on K. pneumoniae A-651.
The corresponding values for `C[C@@](CCn1ncc2cc(C#CC#CC3(CN)CC3)ccc21)(C(=O)NO)S(C)(=O)=O` [Example 54, (R)-4-(5-((1-(aminomethyl)cyclopropyl)buta-1,3-diyn-1-yl)-1H-indazol-1-yl)-N-hydroxy-2-methyl-2-(methylsulfonyl)butanamide] are 8 µg/mL (≈ 18.7 µM), 8 µg/mL (≈ 18.7 µM), > 32 µg/mL and 16 µg/mL (≈ 37.3 µM).
On the same counts, the results for `C[C@@](CCn1ncc2cc(C#Cc3ccc(CCO)cc3)c(F)cc21)(C(=O)NO)S(C)(=O)=O` [Example 47, (R)-4-(6-fluoro-5-((4-(2-hydroxyethyl)phenyl)ethynyl)-1H-indazol-1-yl)-N-hydroxy-2-methyl-2-(methylsulfonyl)butanamide] are ≤ 0.063 µg/mL, 2 µg/mL (≈ 4.22 µM), 0.25 µg/mL (≈ 0.528 µM) and 0.25 µg/mL (≈ 0.528 µM).
The corresponding values for `C[C@@](CCn1ccc2cc(C#Cc3ccc(C4(CO)CC4)cc3)ccc21)(C(=O)NO)S(C)(=O)=O` [Example 25, (R)—N-hydroxy-4-(5-((4-(1-(hydroxymethyl)cyclopropyl)phenyl)ethynyl)-1H-indol-1-yl)-2-methyl-2-(methylsulfonyl)butanamide] are 0.25 µg/mL (≈ 0.52 µM), 2 µg/mL (≈ 4.16 µM), 0.5 µg/mL (≈ 1.04 µM) and 0.5 µg/mL (≈ 1.04 µM).
For the compound `C[C@@](CCn1ncc2cc(-c3ccc(-n4nccn4)cc3)ccc21)(C(=O)NO)S(C)(=O)=O` [Example 6, (R)-4-(5-(4-(2H-1,2,3-triazol-2-yl)phenyl)-1H-indazol-1-yl)-N-hydroxy-2-methyl-2-(methylsulfonyl)butanamide], the MIC against E. coli ATCC25922 is ≤ 0.063 µg/mL; with P. aeruginosa ATCC27853, 2 µg/mL (≈ 4.4 µM); in test [1], 0.125 µg/mL (≈ 0.275 µM); against K. pneumoniae A-651, 0.125 µg/mL (≈ 0.275 µM).
Regarding `C[C@@](CCn1ncc2cc(C#CC#CC3(CO)CC3)ccc21)(C(=O)NO)S(C)(=O)=O` [Example 34, (R)—N-hydroxy-4-(5-((1-(hydroxymethyl)cyclopropyl)buta-1,3-diyn-1-yl)-1H-indazol-1-yl)-2-methyl-2-(methylsulfonyl)butanamide], the MIC was 0.25 µg/mL (≈ 0.582 µM) in the test with E. coli ATCC25922, 1 µg/mL (≈ 2.33 µM) against P. aeruginosa ATCC27853, 16 µg/mL (≈ 37.3 µM) in test [1] and 0.5 µg/mL (≈ 1.16 µM) with K. pneumoniae A-651.
In the case of `COc1ccc(-c2ccc3c(ccn3CC[C@](C)(C(=O)NO)S(C)(=O)=O)c2)c(F)c1` (single isomer, unassigned) [Example 2], the minimal inhibitory concentration (MIC) in the test with E. coli ATCC25922 was 0.125 µg/mL (≈ 0.288 µM); in the test on P. aeruginosa ATCC27853 it was 2 µg/mL (≈ 4.6 µM); in test [1], 8 µg/mL (≈ 18.4 µM); against K. pneumoniae A-651 it was 2 µg/mL (≈ 4.6 µM).
With `C[C@@](CCn1ncc2cc(C#Cc3ccc([C@H](O)CO)cc3)ccc21)(C(=O)NO)S(C)(=O)=O` [Example 22, (R)-4-(5-((4-((S)-1,2-dihydroxyethyl)phenyl)ethynyl)-1H-indazol-1-yl)-N-hydroxy-2-methyl-2-(methylsulfonyl)butanamide], the MIC with E. coli ATCC25922 came out at 0.5 µg/mL (≈ 1.06 µM); in the test with P. aeruginosa ATCC27853, 1 µg/mL (≈ 2.12 µM); in test [1], 0.5 µg/mL (≈ 1.06 µM); against K. pneumoniae A-651, 1 µg/mL (≈ 2.12 µM).
As to `C[C@@](CCn1ccc2cc(C#Cc3ccc(C4(O)COC4)cc3)c(F)cc21)(C(=O)NO)S(C)(=O)=O` (single isomer, unassigned) [Example 15], the MIC against E. coli ATCC25922 was determined as 0.5 µg/mL (≈ 0.999 µM); against P. aeruginosa ATCC27853, 1 µg/mL (≈ 2 µM); in test [1], 0.25 µg/mL (≈ 0.499 µM); against K. pneumoniae A-651, 0.5 µg/mL (≈ 0.999 µM).
